Biological target: T1, BRP (browning-related protein with PPO activity; matched to endochitinase MCHT-2) (Cucumis melo, UniProt Q9AVA8)
T1 construct: native, partially purified from fruit (ammonium sulfate, DEAE Sepharose, Sephacryl S200); about 18 kDa SDS-PAGE, 37 kDa native PAGE, homodimer
T1 sequence (Q9AVA8 21-311): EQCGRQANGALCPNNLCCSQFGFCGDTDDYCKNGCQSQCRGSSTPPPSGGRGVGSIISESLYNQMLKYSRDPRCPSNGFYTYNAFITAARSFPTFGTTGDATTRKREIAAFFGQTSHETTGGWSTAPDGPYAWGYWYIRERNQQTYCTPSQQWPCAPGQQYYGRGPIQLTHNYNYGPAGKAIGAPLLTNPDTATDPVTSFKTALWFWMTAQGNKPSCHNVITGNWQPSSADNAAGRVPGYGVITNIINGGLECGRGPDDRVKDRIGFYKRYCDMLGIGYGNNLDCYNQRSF
Experiment: absorbance at […] nm, Lineweaver-Burk
Format: biochemical
Conditions: oxidation by air oxygen; 0.05 M Tris-HCl pH 7.0, 25 °C

Oc1cccc(O)c1O [Pyrogallol]
Km: 42.8 mM
